Several values for one entry are separate records, joined by “and”; a condition that tells them apart may be missing. Equal values may be shown once. Read-outs that look alike come from different tables or passages of the source.
Experiments:
[1] = test system: HepG2; experiment: Inhibitory activity and IC50 to HepG2 at different time of treatment (MTT, Example 4); type: cell-based, Human; details: for IC50 / inhibition at 5 µg/mL / inhibition at 10 µg/mL / inhibition at 20 µg/mL / inhibition at 40 µg/mL / inhibition at 80 µg/mL: Homo sapiens; for IC50: read-out: IC50 to HepG2
Method: (§1) Human resources hepatoma cell line HepG2 was provided by Cancer Hospital, Chinese Academy of Medical Sciences. […] Cells were passaged every 2 or 3 days, and all the experiments were carried out on exponentially growing cells.
Cells were harvested in good growth status and cell suspension was prepared with 2×10^4 cells/mL, added 100 μL per well of 96-well plates, and cultured for 24 h in the incubator. 100 μL liquid medium with no cell was added per well as blank group.
3 plates were used as parallel test to culture cells at different period.
Before medication, supernatant of each well was removed and fresh 1640 medium was added, 180 μL per well. […] Wells of blank and model groups were added with 0.5% DMSO, 20 μL per well. After finished adding drugs, cells were incubated for 24 and 48 h respectively. At the end of incubation, 20 μL MTT was added per well […]. The supernatant was removed carefully and 150 μL DMSO was added per well. After shaken for 10 mins, the absorbance was read at 490 nm and the inhibition rate was calculated with the formula below.
Inhibition rate=[(ODmodel−ODblank)−(ODdrugs−ODblank)]/(ODmodel−ODblank)×100%
IC50 was calculated with Bliss method.
The MTT experiment was repeated three times.

[2] = test system: HepG2; experiment: Detection of apoptosis (Annexin V-FITC/PI flow cytometry); type: cell-based, Human; details: HepG2, 80 μg/mL, 24 hours
Method: as §1
Following the incubation of cells in the flasks with drug for 24 hours, cell suspension was harvested with 5×10^5 to 1×10^6 cells/mL, and taken with 1 mL for centrifuging for 10 min at 1000 RPM and 4° C. The supernatant was replaced carefully, added with 1 mL cold phosphate-buffered saline, gently shaken for resuspension, recentrifuged and replaced the supernatant. The cells were resuspended with 200 μl Binding Buffer, added with 10 μl Annexin V-FITC and 5 μl PI, gently shaken and reacted for 15 min at Room temperature, then added with 300 μl Binding Buffer and finally measured immediately with Flow cytometry.

[3] = test system: HepG2; experiment: Cell cycle detection (PI flow cytometry); type: cell-based, Human
Method: as §1
[…] Cells were blown and centrifuged at 1000 RPM for 5 mins. The supernatant was removed and 1-2 mL cold phosphate-buffered saline was added, blown and centrifuged again. The precipitate was blew and then fixed with −20° C. 70% alcohol (1-2 mL), centrifuged again. Alcohol was removed, and the precipitate was washed two times with phosphate-buffered saline, blown for suspension and filtered through 100 mesh gauze filter to flow detection tube, centrifuged at 1000 RPM for 5 mins. The supernatant was abandoned and cells were stained with PI dye (50 μg/mL), vibrated and stained at least 30 mins in darkness, detected with Flow cytometry.

[4] = test system: HepG2 human heptoma; experiment: Anti-HepG2 human heptoma in BALB/c (nu/nu) nude mice; details: for body weight of HepG2-bearing nude mice / tumor volume of HepG2-bearing nude mice: mg/kg BW: total saponins 1.5, Compound 1, combination 1 & 39, Cytoxan 40, Sc
Method: 70 male BALB/c (nu/nu) nude mice (18-20 g, License NO. SCXK (BJ) 2009-0017, National Institutes for Food and Drug Control.) were adaptively bred for one week, and then used in the following experiment.
Human resources hepatoma cell line HepG2 was cultured in RPMI-1640 medium containing 100 U/mL Penicillin and 100 μg/mL Streptomycin with 10% fetal bovine serum and maintained at 37° C. in a humidified atmosphere (5% CO2 and […]).
70 BALB/c (nu/nu) nude mice were adaptively bred for 1 week, HepG2 cells were inoculated subcutaneously into the back of nude mice, 1×10^7 cells per mouse. […] 3 days after inoculation, mice of every therapeutic group were all given the relevant compounds or drugs for 3 weeks, and others were given isodose physiological saline.
The body weight and the size of tumor were measured and recorded weekly. The tumor volume was calculated with the formula below:
tumor volume V=π/6×a×b^2 (a, b means the transverse and longitudinal length of tumor)
At the end of administration, mice were fastened for 8 hours, weighed the fasting body weight, dropped off eyeball to collect blood, centrifuged and collected serum for next experiment. The tumors were departed and weighed. Tumor Index and inhibition rate were calculated as below:
Tumor Index=Tumor mass (mg)/body weight of animal (g)
Inhibition rate=(Average tumor massControl group−Average tumor massadministration group)/Average tumor massControl group×100%
Mice in the model group were injected with sterile water (10 ml/kg BW), Sc. All the animals were treated at 9 am for 3 weeks.
Determination of body weights: Body weights of animals were weighed and recorded once a week.
Tumor measurement: The transverse and longitudinal lengths of tumor were measured with vernier caliper weekly.
End of the experiment: After mice being administrated for 3 weeks (21 days), the experiment was terminated.

[5] = test system: BGC823 human gastric adenocarcinoma; experiment: Anti-BGC823 human gastric adenocarcinoma in BALB/c (nu/nu) nude mice; type: in vivo; details: for body weight of BGC823-bearing nude mice / tumor volume of BGC823-bearing nude mice: mg/kg BW: total saponins 1.5, Compound 1, combination 1 & 19, 5-FU 20, Sc; for body weight of BGC823-bearing nude mice: in g (unit assumed)
Method: Human resources gastric adenocarcinoma cell line BGC823 was cultured in the same condition as the experiment 4.
The body weight and the tumor volume were measured and recorded weekly. The tumor volume was calculated according to the formula below.
Tumors were departed and weighed. Tumor Index and inhibition rate were calculated as below: […]

COC(=O)C1CC(O[C@H]2CC[C@]3(C)[C@H]4C=CC5[C@@H]6CC(C)(C)CC[C@]6(C(=O)OC6OC(C)C(OC(=O)/C=C/c7ccc(C)cc7)C(OC(C)=O)C6OC6CC(C)C(O)C(O)C6O)[C@H](O)C[C@@]5(C)[C@]4(C)CC[C@H]3[C@]2(C)C=O)C(OC2OC(CO)C(O)C(O)C2O)C(OC2OCC(O)C(O)C2O)C1O (stereo partly drawn) [Compound (2), sinocrassuloside VII]
highest inhibition rate ([1]; HepG2, 20-80 μg/mL): above 99% | IC50 ([1]; HepG2, 24 h): 5.25 µM | inhibition at 5 µg/mL ([1]; HepG2, 24 h, read-out: Inhibition Rate, HepG2, 5 μg/ml, 24 h): 13.4 ± 5.76% | inhibition at 10 µg/mL ([1]; HepG2, 24 h, read-out: Inhibition Rate, HepG2, 10 μg/ml, 24 h): > 80% | inhibition at 20 µg/mL ([1]; HepG2, 24 h, read-out: Inhibition Rate, HepG2, 20 μg/ml, 24 h): 92.7 ± 2.43% | inhibition at 40 µg/mL ([1]; HepG2, 24 h, read-out: Inhibition Rate, HepG2, 40 μg/ml, 24 h): 90 ± 2.41% | inhibition at 80 µg/mL ([1]; HepG2, 24 h, read-out: Inhibition Rate, HepG2, 80 μg/ml, 24 h): 94.6 ± 2.59% | IC50 ([1]; HepG2, 48 h): 4.56 µM | inhibition at 5 µg/mL ([1]; HepG2, 48 h, read-out: Inhibition Rate, HepG2, 5 μg/ml, 48 h): 16.6 ± 8% | inhibition at 10 µg/mL ([1]; HepG2, 48 h, read-out: Inhibition Rate, HepG2, 10 μg/ml, 48 h): > 80% | inhibition at 20 µg/mL ([1]; HepG2, 48 h, read-out: Inhibition Rate, HepG2, 20 μg/ml, 48 h): 99.47 ± 0.56% | inhibition at 40 µg/mL ([1]; HepG2, 48 h, read-out: Inhibition Rate, HepG2, 40 μg/ml, 48 h): 98.4 ± 1% | inhibition at 80 µg/mL ([1]; HepG2, 48 h, read-out: Inhibition Rate, HepG2, 80 μg/ml, 48 h): 98.89 ± 0.68% | early apoptosis signal ([2]; control 1.5%): 8.5% | number of necrotic cells ([2]; control 2.0%): 6.6% | cells in G0/G1 ([3]; 20 μg/mL, 24 h): 67.26% | cells in G2/M ([3]; 20 μg/mL, 24 h): 15.57% | cells in S ([3]; 20 μg/mL, 24 h): 17.22% | cells in G0/G1 ([3]; 20 μg/mL, 48 h): 60.62% | cells in G2/M ([3]; 20 μg/mL, 48 h): 23.27% | cells in S ([3]; 20 μg/mL, 48 h): 16.11% | cells in G0/G1 ([3]; 20 μg/mL, 72 h): 59.77% | cells in G2/M ([3]; 20 μg/mL, 72 h): 13.96% | cells in S ([3]; 20 μg/mL, 72 h): 26.27% | cells in G0/G1 ([3]; 40 μg/mL, 24 h): 52.52% | cells in G2/M ([3]; 40 μg/mL, 24 h): 29.95% | cells in S ([3]; 40 μg/mL, 24 h): 17.53% | cells in G0/G1 ([3]; 40 μg/mL, 48 h): 55.08% | cells in G2/M ([3]; 40 μg/mL, 48 h): 32.64% | cells in S ([3]; 40 μg/mL, 48 h): 12.29% | cells in G0/G1 ([3]; 40 μg/mL, 72 h): 63.09% | cells in G2/M ([3]; 40 μg/mL, 72 h): 20.44% | cells in S ([3]; 40 μg/mL, 72 h): 16.48% | cells in G0/G1 ([3]; 80 μg/mL, 24 h): 55.19% | cells in G2/M ([3]; 80 μg/mL, 24 h): 21.20% | cells in S ([3]; 80 μg/mL, 24 h): 20.39±2.56% and 20.39% | cells in G0/G1 ([3]; 80 μg/mL, 48 h): 47.28% | cells in G2/M ([3]; 80 μg/mL, 48 h): 21.77% | cells in S ([3]; 80 μg/mL, 48 h): 30.95±5.84% and 30.95% | cells in G0/G1 ([3]; 80 μg/mL, 72 h): 49.28% | cells in G2/M ([3]; 80 μg/mL, 72 h): 10.39% | cells in S ([3]; 80 μg/mL, 72 h): 40.34±12.32% and 40.34% | body weight of HepG2-bearing nude mice ([4]; 0 W): 19.50 ± 0.53 | body weight of HepG2-bearing nude mice ([4]; 1 W): 21.60 ± 0.84 | tumor volume of HepG2-bearing nude mice ([4]; 1 W): 564.84 ± 474.95 | body weight of HepG2-bearing nude mice ([4]; 2 W): 22.40 ± 1.17 | tumor volume of HepG2-bearing nude mice ([4]; 2 W): 841.36 ± 577.72 | body weight of HepG2-bearing nude mice ([4]; 3 W): 22.70 ± 0.95 | tumor volume of HepG2-bearing nude mice ([4]; 3 W): 911.76 ± 460.22 | Inhibition rate ([4]; HepG2-bearing nude mice, after 3 weeks, from average tumor mass vs model): 87.42% and 87.32% | body weight of BGC823-bearing nude mice ([5]; 0 W): 20.10 ± 1.10 | tumor volume of BGC823-bearing nude mice ([5]; 1 W): 796.43 ± 563.35 | tumor volume of BGC823-bearing nude mice ([5]; 2 W): 1186.34 ± 625.68 | body weight of BGC823-bearing nude mice ([5]; 2 W): 23.00 ± 0.82 | tumor volume of BGC823-bearing nude mice ([5]; 3 W): 1654.23 ± 891.57 | body weight of BGC823-bearing nude mice ([5]; 3 W): 23.40 ± 1.58 | Inhibition rate ([5]; BGC823-bearing nude mice, after 3 weeks, from average tumor mass vs model): 79.63%
